Patent US5587392A, “Azolyl methyl phenyl derivatives having aromatase inhibitory activity” (Mochida Pharmaceutical Co., Ltd., priority 1994, dated 1996)
“And” between values parts separate entries of the source, which are not always exact repeats. Equal values may be shown once.

Key:
aromatase from rat ovary = target: T1, aromatase from rat ovary (Rattus norvegicus, UniProt P22443); test: Inhibitory activity on aromatase from rat ovary; assay type: biochemical; details: rat ovarian microsomes, 30 nM [1β-3H] androstenedione, pH 7.4, 37° C., 15 minutes; read-out: IC50 value
T1 construct: Using as an enzyme sample the ovarian microsome fraction from a female rat; from tissue; host or cells: rat ovary, microsome fraction (female rat)
T1 sequence (P22443 1-508): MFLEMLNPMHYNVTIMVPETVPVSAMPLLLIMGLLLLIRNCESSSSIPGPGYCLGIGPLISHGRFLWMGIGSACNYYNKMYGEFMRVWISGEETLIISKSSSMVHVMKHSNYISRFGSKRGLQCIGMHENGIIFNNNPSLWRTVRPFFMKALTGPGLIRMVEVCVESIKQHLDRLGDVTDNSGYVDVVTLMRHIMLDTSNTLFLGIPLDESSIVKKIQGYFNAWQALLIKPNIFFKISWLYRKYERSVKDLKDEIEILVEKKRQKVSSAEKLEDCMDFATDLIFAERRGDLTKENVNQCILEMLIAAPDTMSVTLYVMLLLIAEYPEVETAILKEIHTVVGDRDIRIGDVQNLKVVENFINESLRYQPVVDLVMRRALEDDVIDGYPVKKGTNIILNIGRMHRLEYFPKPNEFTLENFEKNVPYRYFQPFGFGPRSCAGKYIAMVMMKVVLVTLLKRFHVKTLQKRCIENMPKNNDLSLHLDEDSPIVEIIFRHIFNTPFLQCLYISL

plasma estradiol = test: Decreasing activity on blood estrogen (plasma estradiol, PMSG-treated rats); assay type: in vivo, female SD rats; details: Rattus norvegicus, po, 4 hours after dosing, read-out: Ratio in plasma estradiol decrease; for inhibition in vivo at 0.01 mg/kg: 0.01 mg/kg orally; for inhibition in vivo at 0.1 mg/kg: 0.1 mg/kg orally
Experimental: More specifically, pregnant mare serum gonadotropin (PMSG) was subcutaneously administered to female SD rats aged 3 weeks, at a dose of 200 IU/rat. […] Four hours after the dosing of the test compound, blood was sampled, and plasma estradiol was messuered by radioimmunoassay(RIA). The decreasing ratio (%) in plasma estradiol levels was calculated by comparing with control groups.

corticosterone = test: Effect on plasma levels of corticosterone; assay type: in vivo, male SD rats; details: even at the highest doses (10 mg/kg; CGS 16949A 1 mg/kg)
progesterone = test: Effect on plasma levels of progesterone; assay type: in vivo, male SD rats; details: even at the highest doses (10 mg/kg; CGS 16949A 1 mg/kg)
testosterone = test: Effect on plasma levels of testosterone; assay type: in vivo, male SD rats; details: even at the highest doses (10 mg/kg; CGS 16949A 1 mg/kg)
[1] = test system: steroid hormone level in blood; test: Effects on the synthesis of various steroid hormones, compared with the dose lowering blood estrogen; assay type: in vivo, rats; details: 10 mg/kg
[2] = test system: cleavage enzymes of cholesterol side chains; details: related art; cited from earlier work
plasma aldosterone = test: Lowering effect on plasma aldosterone; assay type: in vivo, male SD rats
[3] = test system: plasma 17α-hydroxyprogesterone; test: Elevating effect on plasma 17α-hydroxyprogesterone; assay type: in vivo, male SD rats
[4] = test system: biosynthesis of aldosterone; details: related art; cited from earlier work

Row | IC50 (aromatase from rat ovary) | SMILES | inhibition in vivo at 0.01 mg/kg (plasma estradiol) | inhibition in vivo at 0.1 mg/kg (plasma estradiol) | effect on plasma levels of corticosterone (corticosterone) | effect on plasma levels of progesterone (progesterone) | effect on plasma levels of testosterone (testosterone) | effect on any steroid hormone level in blood [1] | decrease of glucocorticoids and mineral corticoids [2] | potency to inhibit cleavage enzymes of cholesterol side chains [2] | minimal effective dose (plasma aldosterone; Rattus norvegicus, po, read-out: dose decreasing plasma aldosterone level) | Decrease in plasma aldosterone (plasma aldosterone; rat, in vivo) | change of plasma levels of aldosterone (plasma aldosterone; rat, in vivo) | minimal effective dose ([3]; Rattus norvegicus, po, read-out: dose elevating plasma 17α-hydroxyprogesterone level) | Elevation in plasma 17α-hydroxyprogesterone ([3]; rat, in vivo) | change of plasma levels of 17α-hydroxyprogesterone ([3]; rat, in vivo) | inhibition of the biosynthesis of aldosterone [4] | inhibition in vivo at 0.001 mg/kg (plasma estradiol; 0.001 mg/kg orally)
1 | 0.5 nM | Cn1nnc2ccc(Oc3ccc(Cl)cc3Cn3cncn3)cc21 [Example 41, 6-[4-chloro-2-(1H-1,2,4-triazol-1-ylmethyl)phenoxy]-1-methyl-1H-benzotriazole] | 46% | 70% | neither the compound of Example 41 nor the compound of Example 52 in accordance with the present invention had any effect | neither the compound of Example 41 nor the compound of Example 52 in accordance with the present invention had any effect | neither the compound of Example 41 nor the compound of Example 52 in accordance with the present invention had any effect | Neither the compound of Example 41 nor the compound of Example 52 in accordance with the present invention had any effect |  |  |  |  |  |  |  |  |  | 
2 |  | CCC1(c2ccc(N)cc2)CCC(=O)NC1=O (stereo not drawn) [AG, Aminoglutethimide] |  |  |  |  |  |  | causes therefore the decrease of glucocorticoids and mineral corticoids | higher potency to inhibit cleavage enzymes of cholesterol side chains |  |  |  |  |  |  |  | 
3 |  | N#Cc1ccc(C2CCCc3cncn32)cc1 (stereo not drawn) [CGS 16949A, 5-(p-cyanophenyl)-5,6,7,8-tetrahydroimidazo[1,5-a]pyridine] |  |  |  |  |  |  |  |  | ≥ 0.1 mg/kg | 37% and 55% | did change | ≥ 0.1 mg/kg | 169% and 313% | did change | inhibits the biosynthesis of aldosterone | 
4 | 0.4 nM | Cn1nnc2ccc(Oc3ccc(C#N)cc3Cn3cncn3)cc21 [Example 52, 4-[6-(1-methyl-1H-benzotriazoyloxy)]-3-(1H-1,2,4-triazol-1-ylmethyl)benzonitrile] | 77% | 91% | neither the compound of Example 41 nor the compound of Example 52 in accordance with the present invention had any effect | neither the compound of Example 41 nor the compound of Example 52 in accordance with the present invention had any effect | neither the compound of Example 41 nor the compound of Example 52 in accordance with the present invention had any effect | Neither the compound of Example 41 nor the compound of Example 52 in accordance with the present invention had any effect |  |  |  |  |  |  |  |  |  | 22%
